Where two headings read alike, the source gives them in different places.
Experiments:
human V1a receptor = target: T1, human V1a receptor (Homo sapiens, UniProt P37288); test: Cellular in vitro assay for determining vasopressin receptor activity, V1a receptor cell line (CHO, aequorin luminescence); type: cell-based; conditions: for IC50: CHO cell line transfected with human V1a receptor, [Arg]-vasopressin at EC50 concentration, read-out: IC50 hV1a; for ratio IC50 hV2/hV1a: selectivity ratio IC50 hV2 / IC50 hV1a
T1 construct: expressed in transfected cells; host or cells: CHO K1 (ATCC), also stably transfected with a modified aequorin
Summary of the method: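 Antagonism is measured in stable CHO K1 transfectants coexpressing the Gαq-coupled receptor and a calcium-sensitive aequorin photoprotein. Agonist challenge uses [Arg]-vasopressin at EC50 after a 10-minute compound exposure; IC50 values come from the luminescence signal.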

human V2 receptor = target: T2, human V2 receptor (Homo sapiens, UniProt P30518); test: Cellular in vitro assay for determining vasopressin receptor activity, V2 receptor cell line (CHO, CRE-luciferase); type: cell-based; conditions: CHO cell line transfected with human V2 receptor, [Arg8]-vasopressin at EC50 concentration, read-out: IC50 hV2
T2 construct: expressed in transfected cells; host or cells: CHO K1 (ATCC) expressing firefly luciferase under a CRE-responsive promoter
T2 sequence (P30518 whole entry): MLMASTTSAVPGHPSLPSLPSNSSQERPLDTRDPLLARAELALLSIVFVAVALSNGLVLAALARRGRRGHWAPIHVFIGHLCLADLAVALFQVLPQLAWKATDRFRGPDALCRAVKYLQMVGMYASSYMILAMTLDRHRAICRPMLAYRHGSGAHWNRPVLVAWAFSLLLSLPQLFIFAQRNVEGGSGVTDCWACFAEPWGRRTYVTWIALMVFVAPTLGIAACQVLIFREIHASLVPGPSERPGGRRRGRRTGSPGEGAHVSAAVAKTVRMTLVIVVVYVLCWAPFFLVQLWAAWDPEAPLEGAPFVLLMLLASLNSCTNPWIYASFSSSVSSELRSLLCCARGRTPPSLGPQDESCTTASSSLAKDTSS

T1 sequence (P37288 whole entry): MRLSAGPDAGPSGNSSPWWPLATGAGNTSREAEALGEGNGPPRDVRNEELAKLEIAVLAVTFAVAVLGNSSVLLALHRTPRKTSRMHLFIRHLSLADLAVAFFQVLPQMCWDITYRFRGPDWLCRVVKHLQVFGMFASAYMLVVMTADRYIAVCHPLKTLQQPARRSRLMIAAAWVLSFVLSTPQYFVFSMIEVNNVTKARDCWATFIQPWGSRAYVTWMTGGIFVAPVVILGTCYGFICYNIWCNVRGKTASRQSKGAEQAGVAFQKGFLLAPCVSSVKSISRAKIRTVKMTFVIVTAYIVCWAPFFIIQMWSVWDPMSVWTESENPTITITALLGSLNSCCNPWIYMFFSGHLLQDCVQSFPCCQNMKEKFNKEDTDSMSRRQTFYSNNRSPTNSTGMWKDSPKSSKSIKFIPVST

| IC50 (human V1a receptor) | ratio IC50 hV2/hV1a (human V1a receptor) | IC50 (human V2 receptor) | IC50 (human V2 receptor; 3 hours) | Structure (SMILES) |
| --- | --- | --- | --- | --- |
| 39.5 nM | 31.6 | 1250 nM |  | O=C(c1ncccc1-n1cnc(Cn2nc(-c3ccc(Cl)cc3)n(C[C@H](O)C(F)(F)F)c2=O)n1)N1CCC[C@H]1C(F)(F)F [Example 450, 5-(4-Chlorophenyl)-4-[(2S)-3,3,3-trifluoro-2-hydroxypropyl]-2-{[1-(2-{[(2S)-2-(trifluoromethyl)pyrrolidin-1-yl]carbonyl}pyridin-3-yl)-1H-1,2,4-triazol-3-yl]methyl}-2,4-dihydro-3H-1,2,4-triazol-3-one] |
| 12.5 nM | 156.0 |  | 1950 nM | CC(C(=O)Nc1ncccc1-n1cnc(Cn2nc(-c3ccc(Cl)cc3)n(C[C@H](O)C(F)(F)F)c2=O)n1)n1ccnc1 (stereo partly drawn) [Example 131] |
| 20 nM | 26.0 | 520 nM |  | CNC(=O)c1cccnc1-n1cnc(Cn2nc(-c3ccc(Cl)cc3)n(C[C@H](O)C(F)(F)F)c2=O)n1 [Example 495, 2-[3-({3-(4-chlorophenyl)-5-oxo-4-[(2S)-3,3,3-trifluoro-2-hydroxypropyl]-4,5-dihydro-1H-1,2,4-triazol-1-yl}methyl)-1H-1,2,4-triazol-1-yl]-N-methylpyridine-3-carboxamide] |
| 139 nM | 52.8 |  | 7350 nM | O=C1CN(C(=O)c2ccccc2-n2cnc(Cn3nc(-c4ccc(Cl)cc4)n(C[C@H](O)C(F)(F)F)c3=O)n2)CCN1 [Example 171, 4-{2-[3-({3-(4-Chlorophenyl)-5-oxo-4-[(2S)-3,3,3-trifluoro-2-hydroxypropyl]-4,5-dihydro-1H-1,2,4-triazol-1-yl}methyl)-1H-1,2,4-triazol-1-yl]benzoyl}piperazin-2-one] |
| 8.7 nM | 40.8 |  | 355 nM | O=C(NCc1ccc(F)cc1)c1ccccc1-n1cnc(Cn2nc(-c3ccc(Cl)cc3)n(C[C@H](O)C(F)(F)F)c2=O)n1 [Example 235, 2-[3-({3-(4-Chlorophenyl)-5-oxo-4-[(2S)-3,3,3-trifluoro-2-hydroxypropyl]-4,5-dihydro-1H-1,2,4-triazol-1-yl}methyl)-1H-1,2,4-triazol-1-yl]-N-(4-fluorobenzyl)benzamide] |
| 2650 nM | 12.1 | 32000 nM |  | O=C1CN(c2nc(Cn3nc(-c4ccc(Cl)cc4)n(C[C@H](O)C(F)(F)F)c3=O)nn2-c2cccnc2C(=O)NCC(F)(F)F)CCN1 [Example 509, 3-[3-({3-(4-Chlorophenyl)-5-oxo-4-[(2S)-3,3,3-trifluoro-2-hydroxypropyl]-4,5-dihydro-1H-1,2,4-triazol-1-yl}methyl)-5-(3-oxopiperazin-1-yl)-1H-1,2,4-triazol-1-yl]-N-(2,2,2-trifluoroethyl)pyridine-2-carboxamide] |
| 97 nM | 61.3 | 5950 nM |  | O=C(NC1CC1F)c1ncccc1-n1cnc(Cn2nc(-c3ccc(Cl)cc3)n(C[C@@H](O)C(F)(F)F)c2=O)n1 (stereo partly drawn) [Example 462, 3-[3-({3-(4-Chlorophenyl)-5-oxo-4-[(2R)-3,3,3-trifluoro-2-hydroxypropyl]-4,5-dihydro-1H-1,2,4-triazol-1-yl}methyl)-1H-1,2,4-triazol-1-yl]-N-[2-fluorocyclopropyl]pyridine-2-carboxamide] |
| 14 nM | 117.9 |  | 1650 nM | CC(C)N(C(=O)c1ccccc1-n1cnc(Cn2nc(-c3ccc(Cl)cc3)n(C[C@H](O)C(F)(F)F)c2=O)n1)C(C)C [Example 324, 2-[3-({3-(4-Chlorophenyl)-5-oxo-4-[(2S)-3,3,3-trifluoro-2-hydroxypropyl]-4,5-dihydro-1H-1,2,4-triazol-1-yl}methyl)-1H-1,2,4-triazol-1-yl]-N,N-di(propan-2-yl)benzamide] |
| 175 nM | 34.6 | 6050 nM |  | NC(=O)C1CCCN1C(=O)c1ncccc1-n1cnc(Cn2nc(-c3ccc(Cl)cc3)n(C[C@H](O)C(F)(F)F)c2=O)n1 (mixture of isomers) [Example 441, 1-({3-[3-({3-(4-Chlorophenyl)-5-oxo-4-[(2S)-3,3,3-trifluoro-2-hydroxypropyl]-4,5-dihydro-1H-1,2,4-triazol-1-yl}methyl)-1H-1,2,4-triazol-1-yl]pyridin-2-yl}carbonyl)-prolinamide] |
| 1.65 nM | 457.6 |  | 755 nM | Cn1nccc1NC(=O)c1ccccc1-n1cnc(Cn2nc(-c3ccc(Cl)cc3)n(C[C@H](O)C(F)(F)F)c2=O)n1 [Example 210, 2-[3-({3-(4-Chlorophenyl)-5-oxo-4-[(2S)-3,3,3-trifluoro-2-hydroxypropyl]-4,5-dihydro-1H-1,2,4-triazol-1-yl}methyl)-1H-1,2,4-triazol-1-yl]-N-(1-methyl-1H-pyrazol-5-yl)benzamide] |
| 111 nM | 17.9 |  | 2000 nM | O=C(c1cccc(Cl)c1-n1cnc(Cn2nc(-c3ccc(Cl)cc3)n(C[C@H](O)C(F)(F)F)c2=O)n1)N1CCC[C@@H]1C(F)(F)F [Example 384, 5-(4-Chlorophenyl)-2-{[1-(2-chloro-6-{[(2R)-2-(trifluoromethyl)pyrrolidin-1-yl]carbonyl}phenyl)-1H-1,2,4-triazol-3-yl]methyl}-4-[(2S)-3,3,3-trifluoro-2-hydroxypropyl]-2,4-dihydro-3H-1,2,4-triazol-3-one] |
| 7.3 nM | 31.5 |  | 230 nM | Cc1noc(NC(=O)c2ccccc2-n2cnc(Cn3nc(-c4ccc(Cl)cc4)n(C[C@H](O)C(F)(F)F)c3=O)n2)c1C [Example 244, 2-[3-({3-(4-Chlorophenyl)-5-oxo-4-[(2S)-3,3,3-trifluoro-2-hydroxypropyl]-4,5-dihydro-1H-1,2,4-triazol-1-yl}methyl)-1H-1,2,4-triazol-1-yl]-N-(3,4-dimethyl-1,2-oxazol-5-yl)benzamide] |
| 30 nM | 93.3 | 2800 nM |  | O=C(N[C@H]1C[C@@H]1F)c1cccc(C(F)(F)F)c1-n1cnc(Cn2nc(-c3ccc(Cl)cc3)n(C[C@H](O)C(F)(F)F)c2=O)n1 (racemic) [Example 422, 2-[3-({3-(4-Chlorophenyl)-5-oxo-4-[(2S)-3,3,3-trifluoro-2-hydroxypropyl]-4,5-dihydro-1H-1,2,4-triazol-1-yl}methyl)-1H-1,2,4-triazol-1-yl]-N-[2-fluorocyclopropyl]-3-(trifluoromethyl)benzamide] |
| 2.25 nM | 297.8 |  | 670 nM | Cc1cc(NC(=O)c2ccccc2-n2cnc(Cn3nc(-c4ccc(Cl)cc4)n(C[C@H](O)C(F)(F)F)c3=O)n2)ccn1 [Example 254, 2-[3-({3-(4-Chlorophenyl)-5-oxo-4-[(2S)-3,3,3-trifluoro-2-hydroxypropyl]-4,5-dihydro-1H-1,2,4-triazol-1-yl}methyl)-1H-1,2,4-triazol-1-yl]-N-(2-methylpyridin-4-yl)benzamide] |
| 7.35 nM | 32.7 |  | 240 nM | O=C(NCc1ccc(F)c(F)c1)c1ccccc1-n1cnc(Cn2nc(-c3ccc(Cl)cc3)n(C[C@H](O)C(F)(F)F)c2=O)n1 [Example 239, 2-[3-({3-(4-Chlorophenyl)-5-oxo-4-[(2S)-3,3,3-trifluoro-2-hydroxypropyl]-4,5-dihydro-1H-1,2,4-triazol-1-yl}methyl)-1H-1,2,4-triazol-1-yl]-N-(3,4-difluorobenzyl)benzamide] |
| 8.5 nM | 6.6 |  | 56.5 nM | Cc1ccnc(NC(=O)c2ccccc2-n2cnc(Cn3nc(-c4ccc(Cl)cc4)n(C[C@H](O)C(F)(F)F)c3=O)n2)c1 [Example 230, 2-[3-({3-(4-Chlorophenyl)-5-oxo-4-[(2S)-3,3,3-trifluoro-2-hydroxypropyl]-4,5-dihydro-1H-1,2,4-triazol-1-yl}methyl)-1H-1,2,4-triazol-1-yl]-N-(4-methylpyridin-2-yl)benzamide] |
| 67.5 nM | 3.4 |  | 232 nM | O=C(Nc1cccnc1-n1cnc(Cn2nc(-c3ccc(Cl)cc3)n(C[C@H](O)C(F)(F)F)c2=O)n1)C(F)(F)F [Example 36, N-{2-[3-({3-(4-Chlorophenyl)-5-oxo-4-[(2S)-3,3,3-trifluoro-2-hydroxypropyl]-4,5-dihydro-1H-1,2,4-triazol-1-yl}methyl)-1H-1,2,4-triazol-1-yl]pyridin-3-yl}-2,2,2-trifluoroacetamide] |
| 19 nM | 13.4 |  | 255 nM | CC(C)CC(=O)Nc1ncccc1-n1cnc(Cn2nc(-c3ccc(Cl)cc3)n(C[C@H](O)C(F)(F)F)c2=O)n1 [Example 148] |
| 23.5 nM | 24.5 |  | 575 nM | O=C(Nc1cc(O)[nH]n1)c1ccccc1-n1cnc(Cn2nc(-c3ccc(Cl)cc3)n(C[C@H](O)C(F)(F)F)c2=O)n1 [Example 212, 2-[3-({3-(4-Chlorophenyl)-5-oxo-4-[(2S)-3,3,3-trifluoro-2-hydroxypropyl]-4,5-dihydro-1H-1,2,4-triazol-1-yl}methyl)-1H-1,2,4-triazol-1-yl]-N-(5-hydroxy-1H-pyrazol-3-yl)benzamide] |
| 3.1 nM | 50.0 | 155 nM |  | O=C(N[C@H]1C[C@H]1F)c1cccnc1-n1cnc(Cn2nc(-c3ccc(Cl)cc3)n(C[C@H](O)C(F)(F)F)c2=O)n1 (racemic) [Example 504, 2-[3-({3-(4-Chlorophenyl)-5-oxo-4-[(2S)-3,3,3-trifluoro-2-hydroxypropyl]-4,5-dihydro-1H-1,2,4-triazol-1-yl}methyl)-1H-1,2,4-triazol-1-yl]-N-[2-fluorocyclopropyl]pyridine-3-carboxamide] |
